Reference: PubChem BioAssay (NCI)
Where “and” joins values, the source holds several entries; their conditions need not be identical. Equal entries are not always repeated.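 Results reflect a 48-hour exposure of cells in 96-well plates to compound at five concentrations. Abbreviation: GI50, concentration required for 50% inhibition of growth. TGI marks complete inhibition of growth.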

Columns and labels:
Assay in all cases: NCI anticancer screen, dose series, 48 h
[1] = test system: BT-549 breast
[2] = test system: M14 melanoma
[3] = test system: NCI-H23 lung
[4] = test system: SF-268 CNS
[5] = test system: DU-145 prostate
[6] = test system: MOLT-4 leukemia
[7] = test system: MALME-3M melanoma
[8] = test system: A498 renal
[9] = test system: OVCAR-8 ovarian
[10] = test system: HCC-2998 colon

| Structure (SMILES) | TGI [1] | TGI [2] | TGI [3] | TGI [4] | TGI [5] | TGI [6] | TGI [7] | TGI [8] | TGI [9] | TGI [10] | GI50 [1] | GI50 [2] | GI50 [3] | GI50 [4] | GI50 [5] | GI50 [6] | GI50 [7] | GI50 [8] | GI50 [9] | GI50 [10] |
| --- | --- | --- | --- | --- | --- | --- | --- | --- | --- | --- | --- | --- | --- | --- | --- | --- | --- | --- | --- | --- |
| O=C(OCc1ccccc1[N+](=O)[O-])N1c2ccccc2[C@@]23O[C@]24CCC[C@H]3C#C/C=C\C#C[C@H]14 | > 100 µM | > 100 µM | > 100 µM | > 100 µM | > 100 µM | 8.11 µM | > 100 µM | > 100 µM | > 100 µM | > 100 µM | – | – | – | – | – | – | – | – | – | – |
| c1ccc2c3c(c(N4CCNCC4)nc2c1)CCCC3 | 26.9 µM | 19 µM | 28 µM | 33.8 µM | 28.6 µM | > 100 µM | 37.3 µM | 27.6 µM | 29.6 µM | 4.15 µM | – | – | – | – | – | – | – | – | – | – |
| CN(C)CCNc1ccccn1 | > 100 µM | > 100 µM | > 100 µM | > 100 µM | > 100 µM | > 100 µM | > 100 µM | > 100 µM | > 100 µM | > 100 µM | – | – | – | – | – | – | – | – | – | – |
| COC(=O)/C=C1\C(=O)N(C(C)=O)c2ccccc21 | 27.4 µM | 58.7 µM | 28.9 µM | > 61.3 µM | 24.1 µM | 31.4 µM | 27.5 µM | 20 µM | 45.6 µM | 31.4 µM | – | – | – | – | – | – | – | – | – | – |
| CCCc1c(OC)c(O)c2c(=O)cc(OC)c3c4c(OC)cc(=O)c5c(O)c(OC)c(CCC)c(c1c23)c54 | 19.8 µM | 20.4 µM | 26.6 µM | 19.6 µM | 13.2 µM | 5.69 µM | 10.7 µM | 31 µM | 22.6 µM | 34.9 µM | – | – | – | – | – | – | – | – | – | – |
| CC1CN=C(c2ccc3c(c2)Cc2cc(C4=NCC(C)N4)ccc2-3)N1 (configuration not stated) | > 100 µM | > 100 µM | > 100 µM | 77.7 µM | > 100 µM | > 100 µM | 46 µM | > 100 µM | > 100 µM | 39.2 µM | – | – | – | – | – | – | – | – | – | – |
| CN(C)c1ccc(C(=C2C=CC(=[N+](C)C)C=C2)c2c(O)c(S(=O)(=O)[O-])cc3cc(S(=O)(=O)O)ccc23)cc1 | > 100 µM | > 100 µM | > 100 µM | > 100 µM | > 100 µM | > 100 µM | > 100 µM | > 100 µM | > 100 µM | > 100 µM | – | – | – | – | – | – | – | – | – | – |
| Cc1cc(C)c2c(=O)n(CC(O)CN3CCN(c4ncccn4)CC3)sc2n1 (configuration not stated) | 32.3 µM | 29.1 µM | 31.6 µM | 32.6 µM | 30.2 µM | 22.6 µM | 37.5 µM | 31.1 µM | 38.2 µM | 32.9 µM | – | – | – | – | – | – | – | – | – | – |
| O=C(/C=C/c1ccco1)c1ccc(Nc2ccnc3cc(Cl)ccc23)cc1 | > 100 µM | > 100 µM | > 100 µM | > 100 µM | > 100 µM | > 100 µM | > 100 µM | > 100 µM | > 100 µM | > 100 µM | > 100 µM | 70.7 µM | > 100 µM | > 100 µM | 9.33 µM | 3.18 µM | > 100 µM | 1.29 µM | > 100 µM | > 100 µM |
| CC(C)=CCC[C@@H](C)c1c(O)c(O)c(C)c2nc3ccccc3nc12 | 17.1 µM | 12.9 µM | 8.61 µM | 7.22 µM | 10.3 µM | > 27.9 µM | 7.53 µM | 7.97 µM | 24.2 µM | 22.2 µM | – | – | – | – | – | – | – | – | – | – |
| COC(=O)c1ccc2c(c1)CCN2C(=O)c1cc2c(cc1Br)OCO2 | 45.5 µM and 5.57 µM | 6.9 µM and 40.4 µM | 50 µM and 6.16 µM | 50 µM | 26.9 µM and > 100 µM | 12.1 µM and > 100 µM | 50 µM | 30.8 µM and > 100 µM | 50 µM and 14.7 µM | – | 0.424 µM | 0.652 µM | 0.746 µM | – | 3.02 µM | 0.896 µM | – | 2.62 µM | 1.52 µM | 21.2 µM |
| CCOC(=O)C(C(N)=O)c1nc2cc([N+](=O)[O-])ccc2nc1/C=C(\O)c1ccc(C)cc1 (configuration not stated) | 51.4 µM | > 100 µM | 34.3 µM | 35.8 µM | > 100 µM | 1.39 µM | > 100 µM | > 67.7 µM | 40.1 µM | 62.7 µM | – | – | – | – | – | – | – | – | – | – |
| CC(CCC(=O)O)(c1cc(Br)c(O)c(Br)c1)c1cc(Br)c(O)c(Br)c1 | > 100 µM | > 100 µM | > 100 µM | > 100 µM | > 100 µM | > 100 µM | > 100 µM | 87.7 µM | > 100 µM | 86.3 µM | – | – | – | – | – | – | – | – | – | – |
| O=C1CCCc2ccc3c(c21)CC1(Cc2cc4c(cc2C1)CCCC4)C3 | 72.6 µM | 33.2 µM | 49 µM | 77.1 µM | > 100 µM | 37.4 µM | 35.8 µM | > 100 µM | 47.4 µM | > 100 µM | – | – | – | – | – | – | – | – | – | – |
| CC(=O)Nc1ccc(S(=O)(=O)/N=c2/sc(S(N)(=O)=O)nn2C)cc1 | > 100 µM | > 100 µM | > 100 µM | > 100 µM | > 100 µM | > 100 µM | > 100 µM | > 100 µM | > 100 µM | > 100 µM | – | – | – | – | – | – | – | – | – | – |
| CCNc1nc2ccccc2nc1NCC | > 100 µM | > 100 µM | > 100 µM | > 100 µM | > 100 µM | > 100 µM | > 100 µM | > 100 µM | > 100 µM | > 100 µM | – | – | – | – | – | – | – | – | – | – |
| CCOC(=O)C(NC(=O)Nc1ccccc1)(Nc1cccc(Cl)c1)C(F)(F)F (configuration not stated) | > 100 µM | > 100 µM | > 100 µM | > 100 µM | > 100 µM | > 100 µM | > 100 µM | > 100 µM | > 100 µM | > 100 µM | – | – | – | – | – | – | – | – | – | – |
| CO/C=C(/C(=O)OC)c1ccccc1[C@H]1C[C@@H]1c1ccc(OC)cc1 | 46.6 µM | 51.6 µM | > 100 µM | 86.3 µM | > 100 µM | 74.5 µM | 46.8 µM | > 100 µM | > 100 µM | 42.7 µM | – | – | – | – | – | – | – | – | – | – |
| C=C1CN(C(=O)c2cc3cc(OC)c(OC)c(OC)c3[nH]2)c2cc([N+](=O)[O-])ccc21 | > 100 µM | > 100 µM | > 100 µM | > 100 µM | > 100 µM | > 100 µM | > 100 µM | > 100 µM | > 100 µM | > 100 µM | – | – | – | – | – | – | – | – | – | – |
| Nc1c2c(nc3ccccc13)-c1ccccc1CCC2 | 44.4 µM | 25.8 µM | 37.8 µM | 37.2 µM | 32.8 µM | 33 µM | 27.5 µM | 21.4 µM | 29.1 µM | 12.2 µM | – | – | – | – | – | – | – | – | – | – |
| c1ccc2c(c1)N=c1ccccc1=P21c2ccccc2Nc2ccccc21 | 2.63 µM | 5.67 µM | 5.34 µM | 10.2 µM | 10.5 µM | 1.67 µM | 0.868 µM | 5.56 µM | 5.62 µM | 4.06 µM | – | – | – | – | – | – | – | – | – | – |
